Experimental findings from patent publication US10626109B2, “N-hetaryl(thio)carbonyl-2-(benzocycloalken-1-yl)cyclamines and their use as fungicides” (BAYER CROPSCIENCE AKTIENGESELLSCHAFT, priority 2013, dated 2020) are described below.

Like-named read-outs stand apart in the source and are kept apart here. Marks after values point to notes of the source that are not given here.

The nature of series [1]: log P by HPLC on reversed-phase column (C 18), EEC Directive 79/831 Annex V.A8. It is filed as physicochemical. The procedure: In table 1, the log P values were determined in accordance with EEC Directive 79/831 Annex V.A8 by HPLC (High Performance Liquid Chromatography) on a reversed-phase column (C 18), using the method described below: Temperature: 40° C.; Mobile phases: 0.1% aqueous formic acid and acetonitrile; linear gradient from 10% acetonitrile to 90% acetonitrile. Calibration was carried out using unbranched alkan-2-ones (comprising 3 to 16 carbon atoms) with known log P values (determination of the log P values by the retention times using linear interpolation between two successive alkanones). lambda-max-values were determined using UV-spectra from 200 nm to 400 nm and the peak values of the chromatographic signals. In table 2, M+H (Apcl+) and log P are defined as for table 1.

For a further series, the system named is Puccinia recondita. Description: In vivo preventive test on Puccinia recondita (brown rust on wheat). Particulars: for protection: in words, at a dose of 500 and 100 ppm of active ingredient, analogues 11 and 13 in very similar conditions. The procedure: [table] […] The young plants of wheat are treated by spraying the active ingredient prepared as described above. […] After 24 hours, the plants are contaminated by spraying the leaves with an aqueous suspension of Puccinia recondita spores. The contaminated wheat plants are incubated for 24 hours at 20° C. and at 100% relative humidity and then for 10 days at 20° C. and at 70-80% relative humidity. The test is evaluated 11 days after the inoculation. 0% means an efficacy which corresponds to that of the control plants while an efficacy of 100% means that no disease is observed.

Setting [2] is: Table 1, HPLC, 0.1% aqueous formic acid and acetonitrile, 40° C., single value, or first value of a mixture of two diastereoisomers.
Setting [3] is: Table 1, HPLC, 0.1% aqueous formic acid and acetonitrile, 40° C., second value of a mixture of two diastereoisomers.

For `Cn1cc(C(=O)N2CCCC2C2CCc3cc(F)cc(F)c32)c(C(F)(F)F)c1` (single isomer, unassigned) [I.40], in series [1] (setting [2]), the logP is reported as 3.70. For the molecule `Cn1nc(C(F)F)c(C(=O)N2CCCC2C2CCc3cc(F)cc(F)c32)c1F` (mixture of isomers) [I.13], the logP in series [1] (setting [3]) is 3.41; in series [1] (setting [2]), 3.35. Turning to `c1ccc2c(c1)OCCC2C1CCCCN1` (stereo not drawn) [IIa.04, 2-(3,4-dihydro-2H-chromen-4-yl)piperidine], the chromatographic logP in series [1] (reversed-phase HPLC column (C 18), Table 2, compounds of formula (IIa), HPLC as for table 1, read-out: logP) is 0.82.

`Cn1nc(C(F)F)c(C(=O)N2CCCC2C2CCc3cc(F)cc(F)c32)c1Cl` (mixture of isomers) [I.12]: the logP in series [1] (setting [3]) is on record as 3.59; in series [1] (setting [2]), 3.55. `Cn1nc(C(F)F)c(C(=O)N2CCCC2C2CCc3ccc(Cl)cc32)c1F` (mixture of isomers) [I.21]: the lipophilicity (logP) is 3.70 in series [1] (setting [3]) and 3.68 in series [1] (setting [2]).

As to `Cn1nc(C(F)F)c(C(=O)N2CCCC2C2CCc3c(F)cccc32)c1Cl` (stereo not drawn) [I.02], the logP in series [1] (setting [2]) is 3.48. On to `Cn1cc(C(=O)N2CCCC2C2CCc3cc(F)ccc32)c(C(F)F)n1` (mixture of isomers) [I.17], for which the results for the logP in series [1] (setting [3]) and in series [1] (setting [2]) were 3.00 and 2.84, respectively. With `Cc1nc(C(F)F)c(C(=O)N2CCCC2C2CCc3cc(F)cc(F)c32)s1` (single isomer, unassigned) [I.37], the logP in series [1] (setting [2]) amounted to 3.52. Consider `Cn1nc(C(F)F)c(C(=O)N(CCc2ccccc2)C2CC2)c1F` [11 from WO-2011/151369, N-cyclopropyl-3-(difluoromethyl)-5-fluoro-1-methyl-N-(2-phenylethyl)-1H-pyrazole-4-carboxamide], for which the Efficacy in the series with Puccinia recondita (Table C2, dose 100 ppm, formulated in DMF with 2% of alkylarylpolyglycolether) was 0 ^(a) %; in the series on Puccinia recondita (Table C2, dose 500 ppm, formulated in DMF with 2% of alkylarylpolyglycolether) it was 10 ^(a) %. Moreover, the protection result in the series on Puccinia recondita (wheat) was “poor (less than 40%) to no protection”. For `Cn1nc(C(F)F)c(C(=O)N2CCCC2C2CCc3c(F)cccc32)c1F` (mixture of isomers) [I.03], the results for the logP in series [1] (setting [3]) and in series [1] (setting [2]) were 3.35 and 3.31, respectively. `Cc1cc(C(=O)N2CCCC2C2CCc3c(F)cccc32)c(C)o1` (single isomer, unassigned) [I.06]: in series [1] (setting [2]), the logP is 3.74. On the same count and under the same terms, as for `Cn1cc(C(=O)N2CCCC2C2CCc3cc(F)cc(F)c32)c(C(F)F)n1` (stereo not drawn) [I.11], the figure is 2.96. Consider `Cn1cc(C(=O)N2CCCCC2C2CCOc3ccccc32)c(C(F)F)n1` (mixture of isomers) [I.35], for which the logP in series [1] (setting [3]) is reported as 2.90; in series [1] (setting [2]) it was 2.46. Turning to `Cn1cc(C(=O)N2CCCC2C2CCc3cc(F)cc(F)c32)c(C(F)(F)F)c1` (single isomer, unassigned) [I.39], the logP in series [1] (setting [2]) turned out to be 3.68.

Take `Cn1cc(C(=O)N2CCCCC2C2CCCc3ccccc32)c(C(F)F)n1` (stereo not drawn) [I.32]: the logP in series [1] (setting [2]) came to 3.17. Consider `Cn1nc(C(F)F)c(C(=O)N2CCCCC2C2CCCc3ccccc32)c1F` (stereo not drawn) [I.31], for which the logP in series [1] (setting [2]) came out at 3.67. Moreover, the Efficacy with Puccinia recondita (Table C1, dose 100 ppm, wheat) is given as 64%; in the series on Puccinia recondita (Table C1, dose 500 ppm, wheat), 93%. Moreover, in the series on Puccinia recondita (wheat), the protection result is recorded as “excellent (at least 90%) to average (at least 60%) protection”. `Cn1nc(C(=O)N2CCCC2C2CCc3cc(F)cc(F)c32)c(C(F)F)n1` (single isomer, unassigned) [I.15, [2-(5,7-difluoro-2,3-dihydro-1H-inden-1-yl)pyrrolidin-1-yl][5-(difluoromethyl)-2-methyl-2H-1,2,3-triazol-4-yl]methanone]: the chromatographic logP in series [1] (reversed-phase HPLC column (C 18), separated diastereoisomers, preparation Example 1, read-out: log P) stood at 3.63. In turn, `c1ccc2c(c1)CCCC2C1CCCCN1` (stereo not drawn) [IIa.02, 2-(1,2,3,4-tetrahydronaphthalen-1-yl)piperidine] had a chromatographic logP in series [1] (logP) of 1.21. Take `CCC(c1ccccc1)C1CCCCN1C(=O)c1c(C(F)F)nn(C)c1F` (stereo not drawn) [136 from WO-2012/052489, [3-(difluoromethyl)-5-fluoro-1-methyl-1H-pyrazol-4-yl][2-(1-phenylpropyl)piperidin-1-yl]methanone]: the Efficacy in the series on Puccinia recondita (Table C1, dose 100 ppm, wheat) was 50%; in the series on Puccinia recondita (Table C1, dose 500 ppm, wheat), 65%. For the same molecule, in the series with Puccinia recondita (wheat), the protection entry was “average protection”. As to `Cn1cc(C(=O)N2CCCCC2C2CCCCc3ccccc32)c(C(F)F)n1` (mixture of isomers) [I.33], the results for the logP in series [1] (setting [3]) and in series [1] (setting [2]) were 3.68 and 3.50, respectively. In the same order, the values of `Cn1nc(C(F)F)c(C(=S)N2CCCC2C2CCCc3ccccc32)c1Cl` (mixture of isomers) [I.28] are 4.77 and 4.56. In the same order, the values of `Cn1nc(C(F)F)c(C(=O)N2CCCCC2C2CCCCc3ccccc32)c1F` (mixture of isomers) [I.34] are 4.15 and 3.96. As for `O=C(c1ccsc1Br)N1CCCC1C1CCc2c(F)cccc21` (single isomer, unassigned) [I.04], the logP in series [1] (setting [2]) is 3.87. Regarding `Cn1nc(C(F)F)c(C(=O)N2CCCCC2C2CCOc3ccccc32)c1F` (mixture of isomers) [I.36], the results for the logP in series [1] (setting [3]) and in series [1] (setting [2]) were 3.27 and 2.86, respectively.

Turning to `Cn1nc(C(=O)N2CCCC2C2CCc3cc(F)cc(F)c32)c(C(F)F)n1` (single isomer, unassigned) [I.14, [2-(5,7-difluoro-2,3-dihydro-1H-inden-1-yl)pyrrolidin-1-yl][5-(difluoromethyl)-2-methyl-2H-1,2,3-triazol-4-yl]methanone], the chromatographic logP in series [1] (reversed-phase HPLC column (C 18), Table 1, HPLC, 0.1% aqueous formic acid and acetonitrile, 40° C., single value, or first value of a mixture of two diastereoisomers, read-out: logP) came to 3.41. For `Cn1nc(C(F)F)c(C(=O)N2CCCC2C2CCCc3ccccc32)c1Cl` (mixture of isomers) [I.25], the figures for the logP in series [1] (setting [3]) and in series [1] (setting [2]) were 3.79 and 3.68, respectively.

In turn, `c1ccc2c(c1)CCCCC2C1CCCCN1` (stereo not drawn) [IIa.03, 2-(6,7,8,9-tetrahydro-5H-benzo[7]annulen-5-yl)piperidine] displayed a chromatographic logP in series [1] (logP) of 1.31. In the case of `Cc1cc(C(=O)N2CCCC2C2CCc3c(F)cccc32)c(C)o1` (single isomer, unassigned) [I.07], in series [1] (setting [2]), the logP amounted to 3.90. In series [1] (logP), `c1ccc2c(c1)CCC2C1CCCCN1` (stereo not drawn) [IIa.01, 2-(2,3-dihydro-1H-inden-1-yl)piperidine] registered a chromatographic logP of 0.52.

Regarding `Cn1cc(C(=O)N2CCCC2C2CCc3ccc(Cl)cc32)c(C(F)F)n1` (mixture of isomers) [I.19], the figures for the logP in series [1] (setting [3]) and in series [1] (setting [2]) were 3.27 and 3.19, respectively. As for `Cn1cc(C(=O)N2CCCC2C2CCc3cc(Cl)cc(Cl)c32)c(C(F)F)n1` (stereo not drawn) [I.08], in series [1] (setting [2]), the logP is recorded as 3.61.

In the case of `Cn1nc(C(F)F)c(C(=O)N2CCCC2C2CCc3ccc(Cl)cc32)c1Cl` (mixture of isomers) [I.20], the logP in series [1] (setting [3]) was 3.92; in series [1] (setting [2]), 3.87. For `O=C(c1ccsc1Br)N1CCCC1C1CCc2c(F)cccc21` (single isomer, unassigned) [I.05], the logP in series [1] (setting [2]) came to 3.96. `Cn1cc(C(=O)N2CCCC2C2CCc3c(F)cccc32)c(C(F)F)n1` (mixture of isomers) [I.01]: the logP was 2.98 in series [1] (setting [3]) and 2.88 in series [1] (setting [2]).

Consider `Cn1nc(C(F)F)c(C(=O)N2CCCC2C2CCc3cc(Cl)cc(Cl)c32)c1F` (stereo not drawn) [I.10], for which the logP in series [1] (setting [2]) is listed as 4.14. For the molecule `Cn1nc(C(F)F)c(C(=O)N2CCCC2C2CCc3cc(Cl)cc(Cl)c32)c1Cl` (mixture of isomers) [I.09], the log partition coefficient (logP) in series [1] (setting [3]) is recorded as 4.41; in series [1] (setting [2]), 4.34. Take `Cn1nc(C(F)F)c(C(=O)N2CCCCC2C2CCc3ccccc32)c1F` (mixture of isomers) [I.30]: the logP came out at 3.55 in series [1] (setting [3]) and 3.44 in series [1] (setting [2]).

Consider `Cn1cc(C(=O)N2CCCC2C2CCc3ccc(C(C)(C)C)cc32)c(C(F)F)n1` (stereo not drawn) [I.22], for which the logP in series [1] (setting [2]) came to 4.16. For `Cn1nc(C(F)F)c(C(=O)N2CCCC2C2CCc3cc(F)ccc32)c1F` (mixture of isomers) [I.18], the logP in series [1] (setting [3]) is reported as 3.37; in series [1] (setting [2]), 3.29.

With `Cn1nc(C(F)F)c(C(=O)N2CCCC2C2CCc3ccc(C(C)(C)C)cc32)c1Cl` (stereo not drawn) [I.23], the logP in series [1] (setting [2]) is 4.82.

Take `Cc1nc(C(F)F)c(C(=O)N2CCCC2C2CCc3cc(F)cc(F)c32)s1` (single isomer, unassigned) [I.38]: the logP in series [1] (setting [2]) is 3.55. On the same count and under the same terms, as for `Cn1nc(C(F)F)c(C(=O)N2CCCC2C2CCc3cc(F)ccc32)c1Cl` (stereo not drawn) [I.16], the figure is 3.50; as for `Cn1nc(C(F)F)c(C(=S)N2CCCC2C2CCc3c(F)cccc32)c1F` (stereo not drawn) [I.41], 4.01. Take `Cn1cc(C(=O)N2CCCCC2C2CCc3ccccc32)c(C(F)F)n1` (mixture of isomers) [I.29]: the values for the logP in series [1] (setting [3]) and in series [1] (setting [2]) were 3.13 and 2.96, respectively.

What is called logP is the decadic logarithm of the partition coefficient of the neutral form, usually between octanol and water.
